# Test results reported in US6623735B1, “Vaccine containing a thiol protease” (priority 1992, dated 2003).
# Starred links: 1 amine or outer side, 2 acyl side, 3 side chain; linkers in the order of their positions; H or OH if unused. Residues, ends and D or L forms follow the SMILES beside them. *: point of attachment. AMC = Cc1cc(=O)oc2cc(N*)ccc12; Suc = O=C(CCC(=O)[*:2])[*:1]; Tos = Cc1ccc(S(=O)(=O)*)cc1; Cbz = O=C(OCc1ccccc1)*; Boc = CC(C)(C)OC(=O)*; Bz = O=C(c1ccccc1)*
# Assays:
# [1] = system: F. hepatica cathepsin L1; assay: Enzyme kinetic studies, cathepsin L1; assay type: biochemical, Fasciola hepatica; settings: 0.1M glycine pH 7.0, 37° C.
# Method: (§1) The kinetic constants of F. hepatica cathepsins L1 and L2 enzymes were determined for 11 different substrates: Z-Phe-Arg-AMC, Bz-Phe-Val-Arg-AMC, Suc-Leu-Leu-Val-Tyr-AMC, H-Leu-Val-Tyr-AMC, Tos-Gly-Pro-Lys-AMC, Tos-Gly-Pro-Arg-AMC, Boc-Val-Pro-Arg-AMC, Z-Arg-Arg-AMC, Z-Arg-AMC, Suc-Ala-Phe-Lys-AMC and Boc-Val-Leu-Lys-AMC. One mg of fluorogenic substrate was dissolved in 100 μl of dimethyl formamide. This stock solution was diluted in 0.1M glycine pH 7.0 to achieve the desired concentration of substrate. Each substrate concentration was in triplicate and the final assay volume was 1.0 ml. Included in the 1 ml aliquot was 20 μl of enzyme and 50 μl of 10 mM dithiothreitol. The samples were incubated at 37° C. for 30 min before stopping the reaction with the addition of 200 μl of 1.7 M acetic acid. The samples were assayed for released 7-amino-methyl-coumarin as above. The kinetic constants Vmax and Km were obtained by non-linear regression according to the method of Barrett et al (Biochem J. 201, p.189-198) except that 20 μl of cathepsin L2 was incubated with 20 μl of 1.0 μM-0.1 μM E-64 in a final volume of 80 μl 0.1M glycine pH 7.0 for 30 mins at 37° C. Twenty μl of 1/10 cathepsin L1 was incubated with 20 μl of 5 μM-0.5 μM E-64 in a final volume of 80 μl 0.1M glycine pH 7.0 for 30 min. at 37° C. All of the incubated sample was assayed for the fluorogenic substrate Z-Phe-Arg-AMC as above.
# [2] = system: F. hepatica cathepsin L2; assay: Enzyme kinetic studies, cathepsin L2; assay type: biochemical, Fasciola hepatica; settings: 0.1M glycine pH 7.0, 37° C.
# Method: as §1
# [3] = system: E/S products from newly excysted juvenile (NEJ) F. hepatica; assay: Specific activity against fluorogenic substrates by E/S products, NEJ; assay type: biochemical, Fasciola hepatica; settings: E/S products of NEJ; means of duplicate results
# Method: F. hepatica metacercariae (Pfizer strain) encysted on cellophane were removed with a Pasteur pipette into 2% sodium hypochlorite, vortexed and incubated for 30 minutes at 37° C. This procedure removes the outer cyst of the metacercariae. The metacercariae, now only with the inner transparent cyst, were placed into microtitre wells with an automatic pipette using a stereomicroscope and washed in distilled water. They were then incubated in a medium prepared by mixing equal volumes of 0.05M HCl with a solution containing 1% sodium bicarbonate, 0.8% NaCl and 0.2% sodium taurocholate. After 3 hours at 37° C. 70-80% of the flukes were excysted and actively moving. The excysted juveniles were separated from the inner cysts using a 20 μl automatic pipette under a stereomicroscope.
# (§2) Newly excysted juvenile (NEJ), 3 week-old, 5 week-old and mature F. hepatica were maintained in vitro over a period of 3 days. The culture medium, removed daily, was then assayed for Cathepsin L-like activity using the fluorogenic substrate Z-phe-arg-AMC. Cathepsin L-like activity was present in the E/S products from all stages examined. Whilst the Cathepsin L-like activity increased on a daily basis in the NEJ E/S products, indicating an increase in its secretion with time, the activity of this proteinase in the EIS of all other stages decreased over the same time period. The proteinase activity in the E/S of each liver fluke stage was compared using three arginine-containing fluorogenic peptide substrates. These substrates were chosen on the basis of their affinity for lysosomal cathepsin enzymes; cathepsin L (Z-phe-arg-AMC), cathepsin B (Z-arg-arg-AMC) and cathepsin H (Z-arg-AMC). Significant activity was only detected using the Z-phe-arg-AMC substrate and similar results were obtained for all liver fluke stages examined (Table 2 below).
# [4] = system: E/S products from mature F. hepatica; assay: Specific activity against fluorogenic substrates by E/S products, adult flukes; assay type: biochemical, Fasciola hepatica; settings: E/S products of adult flukes; means of duplicate results
# Method: (§3) Mature flukes were removed from the bile ducts of bovine livers obtained at an abbattoir. Immature parasites were obtained from the liver of male Wistar rats three and five weeks after infection with 20 metacercariae.
# as §2
# [5] = system: E/S products from 3 week-old F. hepatica; assay: Specific activity against fluorogenic substrates by E/S products, 3 week-old flukes; assay type: biochemical, Fasciola hepatica; settings: E/S products of 3 week-old flukes; means of duplicate results
# Method: as §3, §2
# [6] = system: E/S products from 5 week-old F. hepatica; assay: Specific activity against fluorogenic substrates by E/S products, 5 week-old flukes; assay type: biochemical, Fasciola hepatica; settings: E/S products of 5 week-old flukes; means of duplicate results
# Method: as §3, §2
# [7] = system: IgG cleaving activity of the E/S products from NEJ flukes; assay: Inhibition of IgG cleaving activity of NEJ E/S products; assay type: biochemical, Fasciola hepatica; settings: final concentration of 50 μM
# Method: (§4) As IgG is involved in antibody-dependent cellular cytotoxicity against helminth parasites and since adult fluke Cathepsin-L1 cleaves mouse IgG2a [see above], the E/S products from NEJ, 3 week-old, 5 week-old and adult flukes were tested for antibody cleaving activity. E/S products from all F. hepatica stages examined were capable of cleaving the purified IgG at the hinge region of the heavy chain and thereby releasing the Fc portion from the antibody binding regions.
# [8] = system: IgG cleaving activity of the E/S products from adult flukes; assay: Inhibition of IgG cleaving activity of adult fluke E/S products; assay type: biochemical, Fasciola hepatica; settings: final concentration of 50 μM
# Method: as §4
# [9] = system: NEJ; parameters: species or system Fasciola hepatica; settings: added to NEJ in culture; data not shown
# [10] = system: antibody-mediated attachment of eosinophils to NEJ; assay: Eosinophil adherence to NEJ in vitro assay; assay type: cell-based, rat
# Method: Twenty newly excysted juvenile F. hepatica were dispensed into 100 μl of rat eosinophil-rich suspension in microtitre wells. According to the experiment either 100 μl aliquots of immune serum or control serum were added with or without E/S products or purified Cathepsin L1. The cysteine proteinase inhibitor leupeptin was added in some experiments at a final concentration of 5 μg/ml. All dilutions were made in Roswell Park Memorial Institute 1640 with 4% heat inactivated fetal calf serum. At the end of the experiment juvenile flukes were carefully transferred to a microscope slide and examined microscopically at 40× and 100× magnifications. Individual flukes were examined and the number of bound eosinophils counted. Those NEJ with more than 20 cells attached were considered positive.
# When rat eosinophil-rich cell populations were added to NEJ in the presence of immune rat serum (IRS obtained from female Wistar rats orally infected with 30 F. hepatica metacercariae; blood was taken after 5 weeks of infection; the sera obtained were pooled, aliquoted and stored at −20° C. until required; control serum was collected from uninfected rats), cell adherence was consistently high (>90% positive NEJ after 2 hours, FIG. 4, panel A; the scale along the base of the Figure represents percentage of positive NEJ as defined above; the 5 bars represent counts at 2 hour intervals). […]
SMILES,Kcat [1] [s⁻¹],Km [1] [µM],Kcat [2] [s⁻¹],Km [2] [µM],"Specific activity against fluorogenic substrates, NEJ [3] [μmol AMC/min/Mg]","Specific activity against fluorogenic substrates, Adults [4] [μmol AMC/min/Mg]","Specific activity against fluorogenic substrates, 3 weeks [5] [μmol AMC/min/Mg]","Specific activity against fluorogenic substrates, 5 weeks [6] [μmol AMC/min/Mg]",inhibition of IgG cleaving activity [7],inhibition of IgG cleaving activity [8],viability of NEJ [9],"effect on action of E/S products and Cathepsin L1 on eosinophil attachment ([10]; 5 μg/ml, with immune serum and NEJ or mature fluke E/S products or purified Cathepsin L1)","rate at which eosinophils are lost from the NEJ surface ([10]; in the presence of immune serum, FIG. 4 panel I)"
Cc1cc(=O)oc2cc(NC(=O)[C@H](CCCCN)NC(=O)[C@H](CC(C)C)NC(=O)[C@@H](NC(=O)OC(C)(C)C)C(C)C)ccc12 [Boc-Val-Leu-Lys-AMC] (Boc-Val-Leu-Lys-{AMC}),7.90,34.7,3.75,7.34,,,,,,,,,
Cc1cc(=O)oc2cc(NC(=O)[C@H](CCCN=C(N)N)NC(=O)[C@@H]3CCCN3C(=O)[C@@H](NC(=O)OC(C)(C)C)C(C)C)ccc12 [Boc-Val-Pro-Arg-AMC] (Boc-Val-Pro-Arg-{AMC}),0.02,43.6,1.19,24.8,,,,,,,,,
Cc1cc(=O)oc2cc(NC(=O)[C@H](CCCN=C(N)N)NC(=O)[C@@H](NC(=O)[C@H](Cc3ccccc3)NC(=O)c3ccccc3)C(C)C)ccc12 [Bz-Phe-Val-Arg-AMC] (Bz-Phe-Val-Arg-{AMC}),0.03,9.25,0.06,1.2,,,,,,,,,
Cc1cc(=O)oc2cc(NC(=O)[C@H](Cc3ccc(O)cc3)NC(=O)[C@@H](NC(=O)[C@@H](N)CC(C)C)C(C)C)ccc12 [H-Leu-Val-Tyr-AMC] (H-Leu-Val-Tyr-{AMC}),0.02,5.4,0.21,3.75,,,,,,,,,
Cc1cc(=O)oc2cc(NC(=O)[C@H](CCCCN)NC(=O)[C@H](Cc3ccccc3)NC(=O)[C@H](C)NC(=O)CCC(=O)O)ccc12 [Suc-Ala-Phe-Lys-AMC] (Suc-Ala-Phe-Lys-{AMC}),0.05,65.3,0.14,41.1,,,,,,,,,
Cc1cc(=O)oc2cc(NC(=O)[C@H](Cc3ccc(O)cc3)NC(=O)[C@@H](NC(=O)[C@H](CC(C)C)NC(=O)[C@H](CC(C)C)NC(=O)CCC(=O)O)C(C)C)ccc12 [Suc-Leu-Leu-Val-Tyr-AMC] (Suc-LLVY-{AMC}),0.01,38.5,0.08,23.3,,,,,,,,,
Cc1ccc(S(=O)(=O)NCC(=O)N2CCC[C@H]2C(=O)N[C@@H](CCCNC(=N)N)C(=O)Nc2ccc3c(C)cc(=O)oc3c2)cc1 [Tos-Gly-Pro-Arg-AMC] (Tos-Gly-Pro-Arg-{AMC}),0.03,26,1.93,17.1,,,,,,,,,
Cc1ccc(S(=O)(=O)NCC(=O)N2CCC[C@H]2C(=O)N[C@@H](CCCCN)C(=O)Nc2ccc3c(C)cc(=O)oc3c2)cc1 [Tos-Gly-Pro-Lys-AMC] (Tos-Gly-Pro-Lys-{AMC}),0.03,107,1.37,35.5,,,,,,,,,
Cc1cc(=O)oc2cc(NC(=O)[C@H](CCCN=C(N)N)NC(=O)OCc3ccccc3)ccc12 [Z-Arg-AMC],0.04,20.4,0.09,14.1,1,63,3,5,,,,,
Cc1cc(=O)oc2cc(NC(=O)[C@H](CCCN=C(N)N)NC(=O)[C@H](CCCN=C(N)N)NC(=O)OCc3ccccc3)ccc12 [Z-Arg-Arg-AMC] (Cbz-Arg-Arg-{AMC}),0.002,65.6,0.02,9.07,0,21,0,2,,,,,
"Cc1cc(=O)oc2cc(NC(=O)[C@H](CCCNC(=N)N)NC(=O)[C@H](Cc3ccccc3)NC(=O)OCc3ccccc3)ccc12 [Z-Phe-Arg-AMC, benzyloxycarbonyl-L-phenylalanyl-L-arginyl-7-amido-4-methyl coumarin] (Cbz-Phe-Arg-{AMC})",1.08,14.7,0.56,3.76,25,1254,29,90,,,,,
C[C@H](NC(=O)[C@H](Cc1ccccc1)NC(=O)OCc1ccccc1)C(=O)C=[N+]=[N-] [Z-phe-ala-CHN2],,,,,,,,,completely inhibited,completely inhibited,,,
CC(=O)N[C@@H](CC(C)C)C(=O)N[C@@H](CC(C)C)C(=O)N[C@H](C=O)CCCNC(=N)N [leupeptin],,,,,,,,,,,did not affect their viability,inhibits the effect of the E/S products and Cathepsin L1,slightly reduces
